Converted amounts (≈) assume the structure as drawn. Like-named read-outs stand apart in the source and are kept apart here.
Columns and labels:
Escherichia coli = test: In vitro antibacterial activity, agar dilution MIC (Experiment 1); type: cell-based
Procedure: (§1) Tested strains: all the clinically separated strains below were purchased from public facilities.
(§2) Escherichia coli ATCC25922, Pseudomonas aeruginosa ATCC27853, Klebsiella pneumoniae ATCC700603, and the like.
(§3) Tested Samples: Imipenem, Ceftazidime: Commercial Products, the Following Experiments were Carried Out According to the Content of an Effective Ingredient in Each Commercial Product;
(§4) The compounds of the present invention, their chemical names, and preparation methods are shown in the preparation example of each compound.
(§5) Experiment method: Agar dilution method, refer to National Committee for Clinical Laboratory Standards. 2006. Methods for Dilution Antimicrobial Susceptibility Tests for Bacteria That Grow Aerobically; Approved Standard—Seventh Edition M7-A7, Vol 26, No. 2, 2006, to determine the MIC of the compound. MIC represents the minimum inhibitory concentration.

Klebsiella pneumoniae = test: as above; type: cell-based
Procedure: as §1, §2, §3, §4, §5

Pseudomonas aeruginosa [1] = test: as above; type: cell-based
Procedure: as §1, §2, §3, §4, §5

[2] = tested on: polymyxin-resistant mcr-1 positive Enterobacteriaceae; test: In vitro antibacterial effect on polymyxin-resistant mcr-1 positive Enterobacteriaceae, agar dilution MIC (Experiment 2); type: cell-based, Escherichia coli
Procedure: Tested samples: the compounds of the present invention, prepared according to the methods of the preparation examples;
Polymyxin E sulphate, Ampicillin, Cefotaxime, Gentamicin, Ciprofloxacin, Tetracycline, and Bactrim were all commercial products, the following experiments were carried out according to the content of an effective ingredient in each commercial product.
Tested strains: Escherichia coli carrying mcr-1 gene isolated from animals and Escherichia coli ATCC25922, a quality control strain, were provided by South China Agricultural University.
With reference to the agar dilution method in CLSI, the MIC value of the tested drugs to the polymyxin resistant mcr-1 positive Escherichia coli were determined.
Preparation of drug-containing agar plates: a drug solution with the highest concentration was prepared for each compound; the drug solution with the highest concentration was subjected to the double dilution; for each of dilution gradient, 1 mL (20×drug working solution) of the drug solution was added to 19 mL MH agar at 45-50° C.; immediately after addition, the agar and the drug solution were uniformly mixed to give a drug-containing agar plate with final concentrations of […], and the plate was solidified for later use; and in the meanwhile, a growth control group was arranged.
Inoculum preparation and culture: the strains stored at −80° C. were rejuvenated and formulated with broth so that the turbidity reached or exceeded 0.5 #McFarland unit; a 96-well plate was used as the inoculation tank, and the bacterial solution was diluted with sodium chloride injection so that the content of bacteria inoculated on the agar was 10^4 CFU/point. A multi-point inoculation instrument was used to inoculate the bacterial solution to the surface of the labeled drug-containing agar. After the water in the inoculation point was completely absorbed by the agar, the plate was placed upside down in a 37° C. constant-temperature incubator and incubated for 16-20 hours.

[3] = Pharmacokinetics (PK) determination in SD rats (Experiment 4); type: in vivo; settings: plasma; for Cl_obs / Vz_obs / t1/2z / λ_z: IV 2 mg/kg; for AUC(0-t) / AUC(0-inf): Sprague-Dawley (SD), rat, iv; for AUC(0-inf): read-out: AUCINF_obs
Procedure: The compound of the present invention, self-prepared and dissolved in a suitable solvent.
Instrument and equipment: API4000 LC-MS/MS
Chromatographic column: Waters XBridge C18(2.1×50 mm, […])
Rat blood collection: Animals were fixed. The animal's tail was heated with a water bathtub 10 minutes before each time point. About 200 μL of the blood was collected through the caudal vein. After the blood collection, the blood was placed in an anticoagulation tube containing heparin sodium. The blood samples were centrifuged at 8000 rpm for 6 minutes at 4° C. to obtain plasma samples. The plasma must be prepared within 30 minutes after the blood collection. The plasma was stored in a refrigerator at −80° C. before the test.
(1) Test samples were removed from the refrigerator (−80° C.), naturally thawed at room temperature, and then vortexed for 5 minutes;
(2) 20 μL sample was precisely pipetted to a 1.5 mL centrifuge tube;
(3) 200 μL of the internal standard solution was added;
(4) The mixture was vortexed for 5 minutes and centrifuged for 5 minutes (12000 revolutions per minute);
(5) 100 μL of the supernate was precisely pipetted, 100 μL of water was added, the mixture was vortexed for 5 minutes, and the sample was sent to LC-MS/MS for analysis.
The results of the concentrations of the test samples (plasma samples) were output with Analyst 1.6.1 of AB Corporation. The meaning value, the standard deviation, the coefficient of variation, and other parameters (not necessary to calculate the parameter that can be directly output from Analyst 1.6.1) were calculated with Microsoft Excel, and the PK parameter is calculated with Pharsight Phoenix 6.1 software.

Pseudomonas aeruginosa [4] = test: In vitro antibacterial activity against Pseudomonas aeruginosa, agar dilution MIC (Experiment 3); type: cell-based; settings: CLSI 2018 (Table 5)
Procedure: Tested samples: the compound of the present invention, prepared according to the preparation example method; Compound C, prepared with reference to WO2008154642A2.
With reference to the steps of the agar dilution method in the 2018 USA Clinical and Laboratory Standards Institute (CLSI), the determination of the minimum inhibitory concentration (MIC) of the compounds against the strain(s) was carried out.
Preparation of drug-containing plate: (1) a drug solution with the highest concentration was prepared, and the highest concentration of each compound was 160 μg/mL. (2) For each compound, the drug solution with the highest concentration was subjected to the double dilution, and a total of 10 concentration gradients was obtained; for each of dilution gradient, 2 mL of the drug solution was added to 18 mL MH agar solution which had been autoclaved at 121° C. and cooled to about 50° C.; the mixture was uniformly mixed, left stand and cooled to give a drug-containing plate; and the plate was labeled. The final concentrations of the compound were respectively 16, 8, 4, 2, 1, 0.5, 0.25, 0.125, 0.06 and 0.03 μg/mL.
Inoculum preparation and inoculation: A fresh single colony was selected, diluted with 0.9% sodium chloride injection, adjusted to 0.5 #McFarland turbidity, and then diluted 10 times with 0.9% sodium chloride injection, then inoculated with an automatic multi-point inoculation instrument to the labeled drug-containing plate.

[5] = agar dilution (Table 3), read-out: MIC50
[6] = agar dilution (Table 3), read-out: MIC90

CC(O)[C@H](NC(=O)c1ccc(C#CC#Cc2ccc(CO)o2)cc1)C(=O)NO (stereo in doubt) [Compound 6, N-((2S,3R)-3-hydroxy-1-(hydroxyamino)-1-oxobutan-2-yl)-4-((5-(hydroxymethyl)furan-2-yl)buta-1,3-diynyl)benzamide]
MIC50 (Escherichia coli): 0.125 µg/mL (≈ 0.327 µM)
MIC90 (Escherichia coli): 0.125 µg/mL (≈ 0.327 µM)
MIC50 (Klebsiella pneumoniae; agar dilution, read-out: MIC50): 1 µg/mL (≈ 2.62 µM)
MIC90 (Klebsiella pneumoniae; agar dilution, read-out: MIC90): 1 µg/mL (≈ 2.62 µM)
MIC50 (Pseudomonas aeruginosa [1]; [5]): 0.25 µg/mL (≈ 0.654 µM)
MIC90 (Pseudomonas aeruginosa [1]; [6]): 1 µg/mL (≈ 2.62 µM)
MIC90 ([2]; Escherichia coli, read-out: MIC90 Value, polymyxin-resistant mcr-1 positive Escherichia coli, agar dilution): 1 µg/mL (≈ 2.62 µM)
MIC90 Value ([2]; polymyxin-resistant mcr-1 positive Escherichia coli, agar dilution): 0.5 µg/mL (≈ 1.31 µM)
Cl_obs ([3]; 2 mg/kg): 8.33 ± 1 mL/min/kg
Vz_obs ([3]; 2 mg/kg): 0.46 ± 0.14 L/kg
t1/2z ([3]; 2 mg/kg): 37.2 ± 7.2 min
λ_z ([3]; 2 mg/kg): 1.14 ± 0.21 h⁻¹
AUC(0-t) ([3]; 2 mg/kg): 4000 ± 442 ng·h/mL
AUC(0-inf) ([3]; 2 mg/kg): 4010 ± 443 ng·h/mL
MIC50 (Pseudomonas aeruginosa [4]): 0.5 µg/mL (≈ 1.31 µM)
MIC90 (Pseudomonas aeruginosa [4]; read-out: MIC90): 1 µg/mL (≈ 2.62 µM)

C[C@@H](O)[C@H](NC(=O)c1ccc(C#CC#Cc2ccc(CN(C)C)o2)cc1)C(=O)NO [Compound 4, 4-((5-((dimethylamino)methyl)furan-2-yl)buta-1,3-diynyl)-N-((2S,3R)-3-hydroxy-1-(hydroxyamino)-1-oxobutan-2-yl)benzamide]
MIC50 (Escherichia coli): 0.25 µg/mL (≈ 0.611 µM)
MIC90 (Escherichia coli): 0.25 µg/mL (≈ 0.611 µM)
MIC50 (Klebsiella pneumoniae): 1 µg/mL (≈ 2.44 µM)
MIC90 (Klebsiella pneumoniae): 2 µg/mL (≈ 4.88 µM)
MIC50 (Pseudomonas aeruginosa [1]): 1 µg/mL (≈ 2.44 µM)
MIC90 (Pseudomonas aeruginosa [1]): 4 µg/mL (≈ 9.77 µM)
Cl_obs [3]: 80 ± 1.83 mL/min/kg
Vz_obs [3]: 1.74 ± 0.81 L/kg
t1/2z [3]: 15 ± 7.2 min
λ_z [3]: 3.16 ± 1.28 h⁻¹
AUC(0-t) ([3]; 2 mg/kg): 414 ± 10.3 ng·h/mL
AUC(0-inf) ([3]; 2 mg/kg): 417 ± 9.68 ng·h/mL

C[C@@H](O)[C@H](NC(=O)c1ccc(C#CC#Cc2ccc(CNC3CC3)o2)cc1)C(=O)NO [Compound 11, 4-((5-((cyclopropylamino)methyl)furan-2-yl)buta-1,3-diynyl)-N-((2S,3R)-3-hydroxy-1-(hydroxamino)-1-oxobutan-2-yl)benzamide]
MIC50 (Escherichia coli; agar dilution, read-out: MIC50): 0.125 µg/mL (≈ 0.297 µM)
MIC90 (Escherichia coli; agar dilution, read-out: MIC90): 0.25 µg/mL (≈ 0.593 µM)
MIC50 (Klebsiella pneumoniae; agar dilution, read-out: MIC50): 0.5 µg/mL (≈ 1.19 µM)
MIC90 (Klebsiella pneumoniae; agar dilution, read-out: MIC90): 2 µg/mL (≈ 4.75 µM)
MIC50 (Pseudomonas aeruginosa [1]; [5]): 1 µg/mL (≈ 2.37 µM)
MIC90 (Pseudomonas aeruginosa [1]; [6]): 8 µg/mL (≈ 19 µM)

C[C@@H](O)[C@H](NC(=O)c1ccc(C#CC#Cc2ccc(CNCCOCCO)o2)cc1)C(=O)NO [Compound 18, N-((2S,3R)-3-hydroxy-1-(hydroxyamino)-1-oxobutan-2-yl)-4-((5-((2-(2-hydroxyethoxy)ethylamino)methyl)furan-2-yl)buta-1,3-diynyl)benzamide]
MIC50 (Klebsiella pneumoniae; agar dilution, read-out: MIC50): 2 µg/mL (≈ 4.26 µM)
MIC90 (Klebsiella pneumoniae; agar dilution, read-out: MIC90): 2 µg/mL (≈ 4.26 µM)
MIC50 (Pseudomonas aeruginosa [1]; [5]): 1 µg/mL (≈ 2.13 µM)
MIC90 (Pseudomonas aeruginosa [1]; [6]): 4 µg/mL (≈ 8.52 µM)

C[C@@H](O)[C@H](NC(=O)c1ccc(C#CC#Cc2ccc(CN3CCOCC3)o2)cc1)C(=O)NO [Compound 23, N-((2S,3R)-3-hydroxy-1-(hydroxyamino)-1-oxobutan-2-yl)-4-((5-(morpholinomethyl)furan-2-yl)buta-1,3-diynyl)benzamide]
MIC50 (Escherichia coli; agar dilution, read-out: MIC50): 0.25 µg/mL (≈ 0.554 µM)
MIC90 (Escherichia coli; agar dilution, read-out: MIC90): 0.25 µg/mL (≈ 0.554 µM)
MIC50 (Klebsiella pneumoniae; agar dilution, read-out: MIC50): 1 µg/mL (≈ 2.21 µM)
MIC90 (Klebsiella pneumoniae; agar dilution, read-out: MIC90): 1 µg/mL (≈ 2.21 µM)
MIC50 (Pseudomonas aeruginosa [1]; [5]): 1 µg/mL (≈ 2.21 µM)
MIC90 (Pseudomonas aeruginosa [1]; [6]): 8 µg/mL (≈ 17.7 µM)
Cl_obs [3]: 30 ± 8.33 mL/min/kg
Vz_obs [3]: 0.52 ± 0.02 L/kg
t1/2z [3]: 12.6 ± 3.6 min
λ_z [3]: 3.47 ± 1.09 h⁻¹
AUC(0-t) ([3]; 2 mg/kg): 1160 ± 278 ng·h/mL
AUC(0-inf) ([3]; 2 mg/kg): 1160 ± 277 ng·h/mL

C[C@@H](O)[C@H](NC(=O)c1ccc(C#CC#Cc2ccc(CO)n2C)cc1)C(=O)NO [Compound 33, N-((2S,3R)-3-hydroxy-1-(hydroxamino)-1-oxobutan-2-yl)-4-((5-(hydroxymethyl)-1-methyl-1H-pyrrol-2-yl)buta-1,3-diynyl)benzamide]
MIC50 (Escherichia coli): 0.125 µg/mL (≈ 0.316 µM)
MIC90 (Escherichia coli): 0.125 µg/mL (≈ 0.316 µM)
MIC50 (Klebsiella pneumoniae): 0.5 µg/mL (≈ 1.26 µM)
MIC90 (Klebsiella pneumoniae): 1 µg/mL (≈ 2.53 µM)
MIC50 (Pseudomonas aeruginosa [1]): 1 µg/mL (≈ 2.53 µM)
MIC90 (Pseudomonas aeruginosa [1]): 8 µg/mL (≈ 20.2 µM)
Cl_obs [3]: 56.5 ± 22.3 mL/min/kg
Vz_obs [3]: 1.21 ± 0.34 L/kg
t1/2z [3]: 15.6 ± 2.4 min
λ_z [3]: 2.75 ± 0.50 h⁻¹
AUC(0-t) ([3]; 2 mg/kg): 666 ± 318 ng·h/mL
AUC(0-inf) ([3]; 2 mg/kg): 671 ± 315 ng·h/mL

C[C@@H](O)[C@H](NC(=O)c1ccc(C#CC#Cc2ccc(CO)s2)cc1)C(=O)NO [Compound 41, N-((2S,3R)-3-hydroxy-1-(hydroxyamino)-1-oxobutan-2-yl)-4-((5-(hydroxymethyl)thienyl-2-yl)buta-1,3-diynyl)benzamide]
MIC50 (Escherichia coli; agar dilution, read-out: MIC50): ≤ 0.03 µg/mL
MIC90 (Escherichia coli; agar dilution, read-out: MIC90): 0.06 µg/mL (≈ 0.151 µM)
MIC50 (Klebsiella pneumoniae; agar dilution, read-out: MIC50): 0.125 µg/mL (≈ 0.314 µM)
MIC90 (Klebsiella pneumoniae; agar dilution, read-out: MIC90): 0.25 µg/mL (≈ 0.627 µM)
MIC50 (Pseudomonas aeruginosa [1]; [5]): 0.25 µg/mL (≈ 0.627 µM)
MIC90 (Pseudomonas aeruginosa [1]; [6]): 1 µg/mL (≈ 2.51 µM)
Cl_obs [3]: 22 ± 5.5 mL/min/kg
Vz_obs [3]: 0.61 ± 0.20 L/kg
t1/2z [3]: 19.2 ± 2.4 min
λ_z [3]: 2.21 ± 0.29 h⁻¹
AUC(0-t) ([3]; 2 mg/kg): 1590 ± 447 ng·h/mL
AUC(0-inf) ([3]; 2 mg/kg): 1590 ± 446 ng·h/mL

C[C@@H](O)[C@H](NC(=O)c1ccc(C#CC#Cc2ccc(CO)cc2)cc1)C(=O)NO [Compound C]
MIC50 (Pseudomonas aeruginosa [4]): 4 µg/mL (≈ 10.2 µM)
MIC90 (Pseudomonas aeruginosa [4]): >16 µg/mL
MIC90 (Pseudomonas aeruginosa [4]; read-out: MIC90): > 16 µg/mL
